“And” between values parts separate entries of the source, which are not always exact repeats. Identical values can stand only once.
Conditions: 101.33 kPa, Liquid; for mass density: Vibrating tube method

CCOS(=O)(=O)[O-].CC[n+]1cccc(C)c1 [1-ethyl-3-methylpyridinium ethylsulfate]
Capillary tube (Ostwald / Ubbelohde) method
Conditions | viscosity [mPa·s]
293.16 K | 182.68
298.13 K | 135.35

CCCCCC[n+]1ccn(C)c1.O=S(=O)([N-]S(=O)(=O)C(F)(F)F)C(F)(F)F
Capillary tube (Ostwald / Ubbelohde) method
Conditions | viscosity [mPa·s]
293.25 K | 89.98
298.19 K | 71.11

CCOS(=O)(=O)[O-].CCn1cc[n+](C)c1 [1-ethyl-3-methylimidazolium ethyl sulfate]
Conditions | mass density
290.65 K | 1243.24 kg/m3
290.66 K | 1243.24 kg/m3
293.15 K | 1241.55 kg/m3
293.16 K | 1241.54 kg/m3
295.65 K | 1239.85 kg/m3
298.15 K | 1238.14 kg/m3 and 1238.15 kg/m3
298.16 K | 1238.15 kg/m3
300.65 K | 1236.44 kg/m3 and 1236.46 kg/m3
300.66 K | 1236.45 kg/m3
303.15 K | 1234.75 kg/m3 and 1234.76 kg/m3
305.64 K | 1233.06 kg/m3
305.65 K | 1233.06 kg/m3
305.66 K | 1233.06 kg/m3
308.14 K | 1231.37 kg/m3
308.15 K | 1231.37 kg/m3
308.16 K | 1231.37 kg/m3
310.64 K | 1229.68 kg/m3 and 1229.69 kg/m3
310.66 K | 1229.68 kg/m3
313.15 K | 1228 kg/m3
315.64 K | 1226.32 kg/m3
315.66 K | 1226.31 kg/m3
318.15 K | 1224.63 kg/m3 and 1224.64 kg/m3
320.65 K | 1222.96 kg/m3

viscosity [mPa·s]
Conditions | 293.14 K | 293.23 K | 298.18 K | 298.19 K | 303.15 K | 308.21 K | 313.14 K | 318.13 K
Capillary tube (Ostwald / Ubbelohde) method | – | 128.62 | 99.37 | – | – | – | – | –
Vibrating wire viscometry | 125.7 | – | – | 97.19 | 76.8 | 61.42 | 50.05 | 41.42
